This passage reports EC50 and IC50 results from patent publication US20160002204A1 (Board of Regents, The University of Texas System, priority 2014, published 2016).

One assay concerns A549 cells. The assay can be described thus: A549 proliferation (viability) assay, Cell Titer Fluor, 72 hours. Conditions: Homo sapiens. It is filed as cell-based. The gist of the method: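 Compound was added to A549 cells (1000/well, pre-grown 24 h in RPMI 1640 plus 10% dialyzed FBS) at 0.5% DMSO and left 72 h under 37 °C, 5% CO2, ambient O2. Live-cell fluorescence (Cell Titer Fluor) gave the EC50.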

Assay [1] deals with T1, GLS1 (purified recombinant human GAC) (Homo sapiens, UniProt O94925).
T1 sequence (O94925 55-598 isoform O94925-3 limits assumed): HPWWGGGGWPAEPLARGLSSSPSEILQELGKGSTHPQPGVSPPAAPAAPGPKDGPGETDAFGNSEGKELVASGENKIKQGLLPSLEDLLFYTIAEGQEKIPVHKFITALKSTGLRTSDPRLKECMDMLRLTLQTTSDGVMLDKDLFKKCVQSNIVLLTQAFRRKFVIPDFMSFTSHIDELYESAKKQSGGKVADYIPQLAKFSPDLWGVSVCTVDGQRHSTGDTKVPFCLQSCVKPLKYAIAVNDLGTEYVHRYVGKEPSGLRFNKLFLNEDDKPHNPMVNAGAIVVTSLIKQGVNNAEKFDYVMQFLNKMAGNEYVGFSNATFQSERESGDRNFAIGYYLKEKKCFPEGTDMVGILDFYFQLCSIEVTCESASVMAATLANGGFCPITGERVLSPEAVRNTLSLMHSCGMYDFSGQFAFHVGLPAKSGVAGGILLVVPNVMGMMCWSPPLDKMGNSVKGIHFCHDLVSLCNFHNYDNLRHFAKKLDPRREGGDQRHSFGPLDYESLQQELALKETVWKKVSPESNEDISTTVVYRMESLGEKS
Nature of the assay: GLS1 enzymatic activity assay (dual-coupled, Amplex UltraRed/resorufin). Type of assay: biochemical. The gist of the method: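 Recombinant human GAC (2 nM) preincubated with 50 mM potassium phosphate, then inhibitor (10 min each, RT); 1 mM glutamine, pH 7.4 Hepes buffer, 1% DMSO. Glutamate coupled via glutamate oxidase/HRP to resorufin (Ex 530/Em 590), kinetic or 20-min endpoint; IC50 by four-parameter logistic fit.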

`O=C(NCc1cc(C(F)(F)F)ccn1)c1cn(CC(F)CCn2ccc(COc3ccc(F)cc3F)cc2=O)nn1` (stereo not shown) [Example 484, 1-{4-[4-(2,4-difluorophenoxymethyl)-2-oxo-1,2-dihydropyridin-1-yl]-2-fluorobutyl}-N-{[4-(trifluoromethyl)pyridin-2-yl]methyl}-1H-1,2,3-triazole-4-carboxamide] returned an EC50 in the assay on A549 cells of 100 to 500 nM. For the same molecule, in assay [1], the IC50 is less than 100 nM.

`O=C(NCc1cc(C(F)(F)F)ccn1)c1cn(CC(F)CCn2ccc(COc3c(F)cccc3F)cc2=O)nn1` (stereo not shown) [Example 485, 1-{4-[4-(2,6-difluorophenoxymethyl)-2-oxo-1,2-dihydropyridin-1-yl]-2-fluorobutyl}-N-{[4-(trifluoromethyl)pyridin-2-yl]methyl}-1H-1,2,3-triazole-4-carboxamide] gave an EC50 in the assay on A549 cells of 100 to 500 nM. The IC50 in assay [1] is 100 to 500 nM.

`O=C(NCc1cc(C(F)(F)F)ccn1)c1cn(CC(F)CCn2ccc(COc3ccc(Cl)cc3)cc2=O)nn1` (stereo not shown) [Example 486, 1-{4-[4-(4-chlorophenoxymethyl)-2-oxo-1,2-dihydropyridin-1-yl]-2-fluorobutyl}-N-{[4-(trifluoromethyl)pyridin-2-yl]methyl}-1H-1,2,3-triazole-4-carboxamide] gave an EC50 with A549 cells of less than 100 nM. In addition, the IC50 in assay [1] was less than 100 nM.

In the assay with A549 cells, `O=C(NCc1cc(C(F)(F)F)ccn1)c1cn(CC(F)CCn2ccc(COc3ccccc3F)cc2=O)nn1` (stereo not shown) [Example 487, 1-{2-fluoro-4-[4-(2-fluorophenoxymethyl)-2-oxo-1,2-dihydropyridin-1-yl]butyl}-N-{[4-(trifluoromethyl)pyridin-2-yl]methyl}-1H-1,2,3-triazole-4-carboxamide] returned an EC50 of 100 to 500 nM. In assay [1], the IC50 was in the range of 100 to 500 nM.

`O=C(Nc1ccn(CCC(F)Cn2cc(C(=O)NCc3cc(C(F)(F)F)ccn3)nn2)c(=O)n1)OCc1ccccc1` (stereo not shown) [Example 488, benzyl N-(1-{3-fluoro-4-[4-({[4-(trifluoromethyl)pyridin-2-yl]methyl}carbamoyl)-1H-1,2,3-triazol-1-yl]butyl}-2-oxo-1,2-dihydropyrimidin-4-yl)carbamate] gave an EC50 with A549 cells of less than 100 nM. In assay [1], the IC50 is less than 100 nM.

In the assay with A549 cells, `O=C(Nc1ccn(CCC(F)Cn2cc(C(=O)NCc3cccc(OC(F)(F)F)c3)nn2)c(=O)n1)OCc1ccccc1F` (stereo not shown) [Example 489, (2-fluorophenyl)methyl N-(1-{3-fluoro-4-[4-({[3-(trifluoro-methoxy)phenyl]methyl}carbamoyl)-1H-1,2,3-triazol-1-yl]butyl}-2-oxo-1,2-dihydropyrimidin-4-yl)carbamate] came in with an EC50 of less than 100 nM. Also, in assay [1], the IC50 is less than 100 nM.

On to `CC(C)COC(=O)Nc1ccn(CCC(F)Cn2cc(C(=O)NCc3cc(C(F)(F)F)ccn3)nn2)c(=O)n1` (stereo not shown) [Example 490, 2-methylpropyl N-(1-{3-fluoro-4-[4-({[4-(trifluoromethyl)pyridin-2-yl]methyl}carbamoyl)-1H-1,2,3-triazol-1-yl]butyl}-2-oxo-1,2-dihydropyrimidin-4-yl)carbamate], for which, in the assay on A549 cells, the EC50 fell in the range of 100 to 500 nM. For the same molecule, the IC50 in assay [1] is less than 100 nM.

As to `O=C(Nc1ccn(CCC(F)Cn2cc(C(=O)NCc3cccc(OC(F)(F)F)c3)nn2)c(=O)n1)OCc1cccc(OC(F)(F)F)c1` (stereo not shown) [Example 491, 3-(trifluoromethoxy)benzyl(1-(3-fluoro-4-(4-((3-(trifluoromethoxy)benzyl)carbamoyl)-1H-1,2,3-triazol-1-yl)butyl)-2-oxo-1,2-dihydropyrimidin-4-yl)carbamate], the EC50 with A549 cells was less than 100 nM. Also, the IC50 in assay [1] was less than 100 nM.

Take `CC(C)(C)COC(=O)Nc1ccn(CCC(F)Cn2cc(C(=O)NCc3cc(C(F)(F)F)ccn3)nn2)c(=O)n1` (stereo not shown) [Example 492, 2,2-dimethylpropyl N-(1-{3-fluoro-4-[4-({[4-(trifluoromethyl)pyridin-2-yl]methyl}carbamoyl)-1H-1,2,3-triazol-1-yl]butyl}-2-oxo-1,2-dihydropyrimidin-4-yl)carbamate]: the EC50 in the assay on A549 cells was less than 100 nM. For the same molecule, the IC50 in assay [1] is less than 100 nM.

`CC(C)(C)COC(=O)Nc1ccn(CCC(F)Cn2cc(C(=O)NCc3cccc(OC(F)(F)F)c3)nn2)c(=O)n1` (stereo not shown) [Example 493, 2,2-dimethylpropyl N-(1-{3-fluoro-4-[4-({[3-(trifluoro-methoxy)phenyl]methyl}carbamoyl)-1H-1,2,3-triazol-1-yl]butyl}-2-oxo-1,2-dihydropyrimidin-4-yl)carbamate] returned an EC50 with A549 cells of less than 100 nM. In addition, the IC50 in assay [1] is less than 100 nM.

With `O=C(NCc1cc(C(F)(F)F)ccn1)c1cn(CC(F)CCn2ccc(Cn3ccccc3=O)cc2=O)nn1` (stereo not shown) [Example 494, 1-(2-fluoro-4-{2-oxo-4-[(2-oxo-1,2-dihydropyridin-1-yl)methyl]-1,2-dihydropyridin-1-yl}butyl)-N-{[4-(trifluoromethyl)pyridin-2-yl]methyl}-1H-1,2,3-triazole-4-carboxamide], in the assay on A549 cells, the EC50 is greater than 5000 nM. Moreover, the IC50 in assay [1] lay within 500 to 5000 nM.

In the assay on A549 cells, `O=C(Nc1ccn(CCC(F)Cn2cc(C(=O)NCc3cc(C(F)(F)F)ccn3)nn2)c(=O)n1)OC1CCC(F)(F)CC1` (stereo not shown) [Example 495, 4,4-difluorocyclohexyl N-(1-{3-fluoro-4-[4-({[4-(trifluoromethyl)pyridin-2-yl]methyl}carbamoyl)-1H-1,2,3-triazol-1-yl]butyl}-2-oxo-1,2-dihydropyrimidin-4-yl)carbamate] gave an EC50 of 500 to 5000 nM. Also, in assay [1], the IC50 is less than 100 nM.

Turning to `O=C(Nc1ccn(CCC(F)Cn2cc(C(=O)NCc3cc(C(F)(F)F)ccn3)nn2)c(=O)n1)NC1CCC1` (stereo not shown) [Example 496, 1-(4-{4-[(cyclobutylcarbamoyl)amino]-2-oxo-1,2-dihydropyrimidin-1-yl}-2-fluorobutyl)-N-{[4-(trifluoromethyl)pyridin-2-yl]methyl}-1H-1,2,3-triazole-4-carboxamide], the EC50 with A549 cells was greater than 5000 nM. Besides, in assay [1], the IC50 was in the range of 500 to 5000 nM.

`CC(OC(=O)Nc1ccn(CCC(F)Cn2cc(C(=O)NCc3cccc(OC(F)(F)F)c3)nn2)c(=O)n1)c1ccccc1` (stereo not shown) [Example 497, 1-phenylethyl N-(1-{3-fluoro-4-[4-({[3-(trifluoromethoxy)phenyl]methyl}carbamoyl)-1H-1,2,3-triazol-1-yl]butyl}-2-oxo-1,2-dihydropyrimidin-4-yl)carbamate] registered an EC50 in the assay with A549 cells of 100 to 500 nM. Moreover, the IC50 in assay [1] is less than 100 nM.

`O=C(Nc1ccn(CCC(F)Cn2cc(C(=O)NCc3cccc(OC(F)(F)F)c3)nn2)c(=O)n1)OC1CCC(F)(F)CC1` (stereo not shown) [Example 498, 4,4-difluorocyclohexyl N-(1-{3-fluoro-4-[4-({[3-(trifluoro-methoxy)phenyl]methyl}carbamoyl)-1H-1,2,3-triazol-1-yl]butyl}-2-oxo-1,2-dihydropyrimidin-4-yl)carbamate] yielded a concentration giving a half-maximal response (EC50) in the assay on A549 cells of less than 100 nM. Further, the IC50 in assay [1] is less than 100 nM.

On to `O=C(Nc1ccn(CCC(F)Cn2cc(C(=O)NCc3cccc(OC(F)(F)F)c3)nn2)c(=O)n1)NC1CCC1` (stereo not shown) [Example 499, 1-(4-{4-[(cyclobutylcarbamoyl)amino]-2-oxo-1,2-dihydropyrimidin-1-yl}-2-fluorobutyl)-N-{[3-(trifluoromethoxy)phenyl]methyl}-1H-1,2,3-triazole-4-carboxamide], for which, in the assay with A549 cells, the EC50 is greater than 5000 nM. In assay [1], the IC50 lay within 500 to 5000 nM.

In the assay on A549 cells, `O=C(Nc1ccn(CCC(F)Cn2cc(C(=O)NCc3cc(C(F)(F)F)ccn3)nn2)c(=O)n1)OCc1cccc(OC(F)(F)F)c1` (stereo not shown) [Example 500, [3-(trifluoromethoxy)phenyl]methyl N-(1-{3-fluoro-4-[4-({[4-(trifluoromethyl)pyridin-2-yl]methyl}carbamoyl)-1H-1,2,3-triazol-1-yl]butyl}-2-oxo-1,2-dihydropyrimidin-4-yl)carbamate] displayed an EC50 of less than 100 nM. Also, in assay [1], the IC50 was less than 100 nM.

As to `O=C(Nc1ccn(CCC(F)Cn2cc(C(=O)NCc3cc(C(F)(F)F)ccn3)nn2)c(=O)n1)OCc1ccccc1F` (stereo not shown) [Example 501, (2-fluorophenyl)methyl N-(1-{3-fluoro-4-[4-({[4-(trifluoromethyl)pyridin-2-yl]methyl}carbamoyl)-1H-1,2,3-triazol-1-yl]butyl}-2-oxo-1,2-dihydropyrimidin-4-yl)carbamate], in the assay with A549 cells, the EC50 was 100 to 500 nM. Further, the IC50 in assay [1] was less than 100 nM.

In the assay with A549 cells, `O=C(Cc1ccccc1)Nc1nnc(CCCCn2ccc(NC(=O)CC3CCCC3)c(F)c2=O)s1` [Example 502, 2-cyclopentyl-N-(3-fluoro-2-oxo-1-{4-[5-(2-phenylacetamido)-1,3,4-thiadiazol-2-yl]butyl}-1,2-dihydropyridin-4-yl)acetamide] displayed a concentration for a half-maximal effect (EC50) of 100 to 500 nM. Moreover, in assay [1], the IC50 is less than 100 nM.

Regarding `O=C(Cc1cccc(OC(F)(F)F)c1)Nc1nnc(CCCCn2ccc(NC(=O)CC3CCCC3)c(F)c2=O)s1` [Example 503, 2-cyclopentyl-N-{3-fluoro-2-oxo-1-[4-(5-{2-[3-(trifluoromethoxy)phenyl]acetamido}-1,3,4-thiadiazol-2-yl)butyl]-1,2-dihydropyridin-4-yl}acetamide], the EC50 in the assay with A549 cells was less than 100 nM. The IC50 in assay [1] was less than 100 nM.
